These are literature values, as cited in US20110252694A1, “COMPOSITIONS FOR DRIP FUMIGATION” (priority 2010, published 2011).

In data set [1] the test system is weeds, nematodes, and soil pathogens. The note with it: compared with methyl bromide.
Data set [2] relates to plant. As to conditions: when used in effective concentrations.

Turning to `CI` [Methyl Iodide, methyl iodide], the “combating weeds, nematodes, and soil pathogens” value in data set [1] was “equal to or better than methyl bromide”. For the same molecule, the plant toxicity entry in data set [2] is “does not result in plant toxicity”.
